Laboratory results taken from patent publication US10653741B2, “Herbo-mineral formulation for the treatment of cardio vascular diseases and method of preparation thereof” (Muniyal Ayurvedic Research Centre, priority 2017, dated 2020).

What was measured:
[1] = Organ weight, ISP induced myocardial infarction study; format: in vivo, Sprague-Dawley rats; settings: Carvedilol 2 mg/kg + ISP
From the text: (§1) Animals: 35 male Sprague-Dawley rats of 150-200 g body weight were selected for the study. Animals were housed in individual polycarbonate cages in a well-ventilated room under an ambient temperature of 23±2 degree C. and 40-65% relative humidity, with artificial photoperiod 12-h light/12-h dark cycle. They were provided with standard rodent pellet diet (Nutrilab Rodent, Tetragon Chemie, India) and purified water ad libitum (RIOS, USA). Experimental animals were acclimatized for 7 days to the laboratory conditions prior to experimentation. The study protocol was approved by Institutional Animal Ethical Committee (IAEC).
(§2) Experimental groups and design: Rats were randomized into 5 groups based on the body weight. ISP (120 mg/kg) was injected subcutaneously to rats on 19th and 21st day to induce experimental myocardial infarction. Test drug was orally administered throughout the study. • Group I (Normal control): 0.5% CMC • Group II (Positive control): 0.5% CMC+ISP (120 mg/kg) • Group III (Standard): Carvedilol (2 mg/kg/day, p.o)+ISP (120 mg/kg, s.c.) • Group IV (Low dose): Test drug (50 mg/kg/day, p.o)+ISP (120 mg/kg, s.c.) • Group V (High dose): Test drug (100 mg/kg/day, p.o)+ISP (120 mg/kg, s.c.)
(§3) The change in body weight was recorded every week. At the end of the experiment, blood was collected and the plasma was separated for biochemical investigation. The animals were euthanized and the organs (heart, Kidney and adrenals) were dissected out and weighed. Heart homogenate was used for further analysis and LV was separated for the analysis of apoptotic marker gene expression as depicted in the various examples hereunder.

[2] = Body weight, ISP induced myocardial infarction study; format: in vivo, Sprague-Dawley rats; settings: Carvedilol 2 mg/kg + ISP, Mean ± SEM
From the text: as §1, §2, §3

Organ weight: Adrenals ([1]; Mean ± SEM): 0.02 ± 0.00 g
Organ weight: Kidney ([1]; Mean ± SEM): 0.68 ± 0.10 g
Structure (SMILES): COc1ccccc1OCCNCC(O)COc1cccc2[nH]c3ccccc3c12 (centres unmarked) [Carvedilol]
Organ weight: Heart, percent in brackets (compared with Positive control) [1]: 13.1%
Organ weight: Heart ([1]; Mean ± SEM): 0.44 ± 0.07 g
Body weight ([2]; 0th day): 211.00 ± 1.70 g
Body weight ([2]; 7th day): 210.57 ± 3.22 g
Body weight ([2]; 14th day): 218.43 ± 4.37 g
Body weight ([2]; 21st day): 216.43 ± 1.58 g
